This passage reports IC50 results from patent US20230234943A1, “TREX1 INHIBITORS AND USES THEREOF” (Tempest Therapeutics, Inc., priority 2020, published 2023).

This assay concerns the target T1, Human TREX1 enzyme (amino acids 1-242) (Homo sapiens, UniProt Q9NSU2).
T1 construct: Human TREX1 enzyme (amino acids 1-242)
T1 sequence (Q9NSU2 1-242): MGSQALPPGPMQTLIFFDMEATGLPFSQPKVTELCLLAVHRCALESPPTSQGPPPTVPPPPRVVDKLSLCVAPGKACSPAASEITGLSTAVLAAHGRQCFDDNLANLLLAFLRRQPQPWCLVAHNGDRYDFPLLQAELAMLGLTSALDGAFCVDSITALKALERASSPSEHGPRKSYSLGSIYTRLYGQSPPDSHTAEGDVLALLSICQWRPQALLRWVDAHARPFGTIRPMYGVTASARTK
Put plainly: Human TREX1 enzymatic assay with dsDNA native oligonucleotide (Picogreen fluorescence). The format is biochemical. The following applies: 2 mM dithiothreitol in assay buffer; 50 nM dsDNA oligonucleotide; 30 min preincubation at 25° C.; read-out: TREX1/Human + DTT IC50 AVG. The procedure:
Example A. Human TREX1 Enzymatic Assay with dsDNA Native Oligonucleotide
Human TREX1 enzyme (amino acids 1-242) was diluted in assay buffer (20 mM Tris pH 7.7, 5 mM MgCl2, 0.01% human serum albumin, 0.01% Brij™-35, 2 mM dithiothreitol) to a final concentration of 0.8 nM to 0.16 nM and added to a 96-well low-binding polypropylene plate. Test compounds were diluted in DMSO to 50× concentration (final DMSO concentration in reaction mixture of 2%) and added to the wells with a concentration ranging from 300 μM to 13 nM or 30 μM to 1.5 nM. The reaction mixtures were incubated for 30 minutes at 25° C. and a solution of annealed dsDNA oligonucleotide (5′-[…]-3′ and Comp: 5′-[…]-3′) was added to a final concentration of 50 nM. The reaction mixtures were incubated at 25° C. for 5-15 minutes and subsequently quenched by transferring part of the assay reaction to a solution of 100 mM ethylenediaminetetraacetic acid and 1:100 Picogreen™ (final concentration of […]) in a black plate with an opaque bottom. The fluorescence ([…]) was measured using a Molecular Devices SpectraMax plate reader. Wells containing oligonucleotide but no TREX1 enzyme were used as negative controls. Wells containing oligonucleotide, TREX1 enzyme, and DMSO were used as positive controls.

SMILES strings stand for the structures.

Take `COc1cc(-c2nc3cc(C4CCC4)ccc3[nH]2)cc(O)c1O` [Example 268, 5-(5-cyclobutyl-1H-benzo[d]imidazol-2-yl)-3-methoxybenzene-1,2-diol]: the IC50 is more than 100 µM.

As for `COc1cc(-c2nc3ccc(N4CCOCC4)cc3n2C)cc(O)c1O` [Example 63, 3-methoxy-5-(1-methyl-6-morpholino-1H-benzo[d]imidazol-2-yl)benzene-1,2-diol], the IC50 was in the range of 10 to 100 µM.

For the compound `CCc1c(-c2nc3ccccc3n2C2(C)COC2)cc(OC)c(O)c1O` [Example 173, 3-ethyl-6-methoxy-4-[1-(3-methyloxetan-3-yl)-1H-1,3-benzodiazol-2-yl]benzene-1,2-diol], the IC50 fell in the range of 10 to 100 µM.

Regarding `COc1cc(-c2nc3cc(N4CCC4)ccc3n2C2COC2)cc(O)c1O` [Example 284, 5-(5-(azetidin-1-yl)-1-(oxetan-3-yl)-1H-benzo[d]imidazol-2-yl)-3-methoxybenzene-1,2-diol], the IC50 lay in the range of 1 to 10 µM.

With `COc1cc(-c2nc3cc(N4CCN(C)CC4)ccc3n2C)cc(O)c1O` [Example 35, 3-methoxy-5-(1-methyl-5-(4-methylpiperazin-1-yl)-1H-benzo[d]imidazol-2-yl)benzene-1,2-diol], the IC50 is more than 100 µM.

On to `COc1cc(-c2nc3cc(N4CCN(C(=O)c5ccc(-c6ccccc6)cc5)CC4)ccc3[nH]2)cc(O)c1O` [Example 112, [1,1′-biphenyl]-4-yl(4-(2-(3,4-dihydroxy-5-methoxyphenyl)-1H-benzo[d]imidazol-5-yl)piperazin-1-yl)methanone], for which the IC50 is more than 100 µM.

Regarding `COc1cc(-c2nc3cc(N4CCN(C(=O)c5cccnc5)CC4)ccc3[nH]2)cc(O)c1O` [Example 32, (4-(2-(3,4-dihydroxy-5-methoxyphenyl)-1H-benzo[d]imidazol-5-yl)piperazin-1-yl)(pyridin-3-yl)methanone], the IC50 lay within 10 to 100 µM.

Regarding `COc1cc(-c2nc3ccc(N4CCN(C(=O)c5ccccc5)CC4)cc3n2C2CCOC2)cc(O)c1O` (stereo not shown) [Example 106, (4-(2-(3,4-dihydroxy-5-methoxyphenyl)-1-(tetrahydrofuran-3-yl)-1H-benzo[d]imidazol-6-yl)piperazin-1-yl)(phenyl)methanone], the IC50 was 1 to 10 µM.

Take `COc1cc(-c2nc3ccc(N4CCC4)cc3n2C2COC2)c(C)c(O)c1O` [Example 283, 4-(6-(azetidin-1-yl)-1-(oxetan-3-yl)-1H-benzo[d]imidazol-2-yl)-6-methoxy-3-methylbenzene-1,2-diol]: the IC50 lay within 1 to 10 µM.

As for `COc1cc(-c2nc3cc(N4CCN(C(=O)CCCC[C@@H]5SC[C@@H]6NC(=O)N[C@@H]65)CC4)ccc3[nH]2)cc(O)c1O` [Example 23, (3aS,4S,6aR)-4-(5-(4-(2-(3,4-dihydroxy-5-methoxyphenyl)-1H-benzo[d]imidazol-5-yl)piperazin-1-yl)-5-oxopentyl)tetrahydro-1H-thieno[3,4-d]imidazol-2(3H)-one], the IC50 is 1 to 10 µM.

On to `COc1cc(-c2nc3cc(N4CC5(C4)CN(C(C)C)C5)ccc3[nH]2)cc(O)c1O` [Example 153, 5-(5-(6-isopropyl-2,6-diazaspiro[3.3]heptan-2-yl)-1H-benzo[d]imidazol-2-yl)-3-methoxybenzene-1,2-diol], for which the IC50 was 10 to 100 µM.

In the case of `CCNc1ccc2c(c1)nc(-c1cc(OC)c(O)c(O)c1F)n2C1(C)COC1` [Example 223, 4-(5-(ethylamino)-1-(3-methyloxetan-3-yl)-1H-benzo[d]imidazol-2-yl)-3-fluoro-6-methoxybenzene-1,2-diol], the IC50 was in the range of 0.1 to 1 µM.

On to `COc1cc(-c2nc3ccc(-c4ccnn4C)cc3n2C2(C)COC2)c(F)c(O)c1O` [Example 266, 3-fluoro-6-methoxy-4-(6-(1-methyl-1H-pyrazol-5-yl)-1-(3-methyloxetan-3-yl)-1H-benzo[d]imidazol-2-yl)benzene-1,2-diol], for which the IC50 lay within 1 to 10 µM.

On to `COc1cc(-c2nc3cc(N4CCN(C)C(=O)C4)ccc3[nH]2)cc(O)c1O` [Example 108, 4-(2-(3,4-dihydroxy-5-methoxyphenyl)-1H-benzo[d]imidazol-5-yl)-1-methylpiperazin-2-one], for which the IC50 was in the range of 1 to 10 µM.

On to `COc1cc(-c2nc3c(-c4ccccc4)ncnc3[nH]2)cc(O)c1O` [Example 37, 3-methoxy-5-(6-phenyl-9H-purin-8-yl)benzene-1,2-diol], for which the IC50 is more than 100 µM.

As for `CNC(=O)c1ccc2nc(-c3cc(OC)c(O)c(O)c3F)n(C3(C)COC3)c2c1` [Example 212, 2-(2-fluoro-3,4-dihydroxy-5-methoxyphenyl)-N-methyl-1-(3-methyloxetan-3-yl)-1H-benzo[d]imidazole-6-carboxamide], the IC50 was not above 0.1 µM.

Turning to `COc1cc(-c2nc3ccncc3n2C2(C)COC2)c(F)c(O)c1O` [Example 230, 3-fluoro-6-methoxy-4-[3(3-methyloxetan-3-yl)-3H-imidazo[4,5-c]pyridin-2-yl]benzene-1,2-diol], the IC50 is 0.1 to 1 µM.

Consider `COc1cc(-c2nc3cc(N4CCNC4=O)ccc3n2C2(C)COC2)c(F)c(O)c1O` [Example 198, 1-(2-(2-fluoro-3,4-dihydroxy-5-methoxyphenyl)-1-(3-methyloxetan-3-yl)-1H-benzo[d]imidazol-5-yl)imidazolidin-2-one], for which the IC50 is not above 0.1 µM.

In the case of `COc1cc(-c2nc3ccc(C(=O)NC(C)C)cc3n2C2(C)COC2)c(F)c(O)c1O` [Example 252, 2-(2-fluoro-3,4-dihydroxy-5-methoxyphenyl)-N-isopropyl-1-(3-methyloxetan-3-yl)-1H-benzo[d]imidazole-6-carboxamide], the IC50 is not above 0.1 µM.

Turning to `COc1cc(-c2nc3ccc(C(=O)NC4CCC(F)(F)CC4)cc3n2C2(C)COC2)c(F)c(O)c1O` [Example 256, N-(4,4-difluorocyclohexyl)-2-(2-fluoro-3,4-dihydroxy-5-methoxyphenyl)-1-(3-methyloxetan-3-yl)-1H-benzo[d]imidazole-6-carboxamide], the IC50 is not above 0.1 µM.

On to `CNS(=O)(=O)c1ccc2[nH]c(-c3cc(O)c(O)c(OC)c3)nc2c1` [Example 20, 2-(3,4-dihydroxy-5-methoxyphenyl)-N-methyl-1H-benzo[d]imidazole-5-sulfonamide], for which the IC50 was more than 100 µM.

Regarding `CNC(=O)c1ccc2nc(-c3cc(OC)c(O)c(O)c3C)n(C3(C)COC3)c2c1` [Example 213, 2-(3,4-dihydroxy-5-methoxy-2-methylphenyl)-N-methyl-1-(3-methyloxetan-3-yl)-1H-1,3-benzodiazole-6-carboxamide], the IC50 was not above 0.1 µM.

For the compound `COc1cc(-c2nc3c(C)ncnc3[nH]2)cc(O)c1O` [Example 41, 3-methoxy-5-(6-methyl-9H-purin-8-yl)benzene-1,2-diol], the IC50 was more than 100 µM.

On to `COc1cc(-c2nc3cc(N4CC(C#N)C4)ccc3[nH]2)cc(O)c1O` [Example 138, 1-(2-(3,4-dihydroxy-5-methoxyphenyl)-1H-benzo[d]imidazol-5-yl)azetidine-3-carbonitrile], for which the IC50 was more than 100 µM.

On to `COc1ccc2c(c1)CCN(c1ccc3[nH]c(-c4cc(O)c(O)c(OC)c4)nc3c1)C2` [Example 67, 3-methoxy-5-(5-(6-methoxy-3,4-dihydroisoquinolin-2(1H)-yl)-1H-benzo[d]imidazol-2-yl)benzene-1,2-diol], for which the IC50 is more than 100 µM.

Consider `COc1cc(-c2nc3ccncc3[nH]2)cc(C(=O)O)c1O` [Example 5, 2-hydroxy-5-(3H-imidazo[4,5-c]pyridin-2-yl)-3-methoxybenzoic acid], for which the IC50 lay within 1 to 10 µM.

As for `CCCCN1CCN(c2ccc3[nH]c(-c4cc(O)c(O)c(OC)c4)nc3c2)CC1` [Example 65, 5-(5-(4-butylpiperazin-1-yl)-1H-benzo[d]imidazol-2-yl)-3-methoxybenzene-1,2-diol], the IC50 was more than 100 µM.

`COc1cc(-c2nc3cc(N4CCOCC4)ccc3s2)cc(O)c1O` [Example 156, 3-methoxy-5-(5-morpholinobenzo[d]thiazol-2-yl)benzene-1,2-diol]: the IC50 lay within 10 to 100 µM.

Consider `COc1cc(-c2nc3nc(N4CCOCC4)ncc3[nH]2)cc(O)c1O` [Example 80, 3-methoxy-5-(2-morpholino-7H-purin-8-yl)benzene-1,2-diol], for which the IC50 was more than 100 µM.

For `COc1cc(-c2nc3cc(N4CCN(C(C)=O)CC4)ccc3n2C(C)=O)cc(O)c1O` [Example 27, 1-(4-(1-acetyl-2-(3,4-dihydroxy-5-methoxyphenyl)-1H-benzo[d]imidazol-5-yl)piperazin-1-yl)ethanone], the IC50 lay within 10 to 100 µM.

Turning to `COc1cc(-c2nc3ccccc3n2C2CCOCC2)c(C)c(O)c1O` [Example 149, 6-methoxy-3-methyl-4-(1-(tetrahydro-2H-pyran-4-yl)-1H-benzo[d]imidazol-2-yl)benzene-1,2-diol], the IC50 was in the range of 10 to 100 µM.
